US20140163082A1, “PYRAZOLYL COMPOUNDS FOR USE IN REVERSING REACTIVE GLIOSIS” (priority 2011, published 2014)

How the values were obtained:
[1] = tested on: retinal NV in OIR mouse model; type: in vivo
Method: (§1) Retinal NV was induced in newborn mice as described previously. Briefly, P7 mice were exposed with their nursing mother, for 5 days [between P7 and P12] to hyperoxic conditions, by incubating them in an airtight chamber [PROOX 110 chamber O2 controller; Biospherix Ltd., Redfield, N.Y.] ventilated by a mixture of O2 and air to a final oxygen fraction of 75±2%. These incubation conditions induced vaso-obliteration and subsequent cessation of vascular development in the capillary beds of the central retina. At P12, the mice were allowed to recover in normal room air conditions and maintained for another 5 days [till P17], the day in which peak disease occurs. A condition of relative hypoxia resulted between P12 and P17, and extensive retinal NV developed in 100% of the mice. Age-matched animals with the hyperoxia-exposed groups were maintained identically, except they were exposed to room air [2]% O2, 79% N2] for the entire duration of the experiment. All animals were examined and sacrificed on the same days.
A group of hyperoxia-exposed animals [n=15] were injected intravitreally [into both eyes] at P12 and P15 with 3 μl of YC-1 [100 μM] [drug-treated group]. Another group of hyperoxiaexposed mice [n=15] were injected intravitreally [into both eyes] at P12 and P15 with 3 μl of DMSO [0.2% [v/v]] [mock-treated group]. Non-treated mice grown under ambient conditions, non-treated hyperoxia-exposed mice, DMSO-treated hyperoxia-exposed mice and YC-1-treated hyperoxia-exposed mice, were all examined at different critical time points for qualitative assessment of the retinal vasculature by fluorescein angiography.
Deep anesthesia was induced by intraperitoneal injection of ketamine [1%], xylazine [0.1%], and sodium chloride [0.9%] in a concentration of 0.1 mL/10 g mouse body weight. Sternotomy was performed, the mice were perfused through the left ventricle with 600 μL of high-molecular-mass [2×106 Da] FITC-dextran in PBS [50 mg/ml], which was allowed to circulate for 2 minutes before the animals were euthanatized and the eyes enucleated and the flat mounts were prepared. Subsequent to retinal extraction, all retinas were fixed in 4% paraformaldehye for 24 hrs at 4° C. A dissecting microscope was used to dissect the cornea with a circumferential limbal incision, followed by removal of the lens and vitreous. Microscissors were used to make four radial incisions of the retinal eyecup in order to prepare retinal flat mounts on glass slides. Flat mounts were immersed in Aquamount mounting medium [Polysciences, Warrington, Pa.], coverslips were carefully placed over the retina, and the edges of the coverslips were sealed.
Images of the perfused retinas were captured with a fluorescence microscope [Zeiss Axiovert 135, Thornwood, N.Y.], and images were captured in a digital format in a 10× and 100× objectives using a digital camera [AxioCam, NY]. The extent of retinal NV was then quantified by Metamorph™ imaging software [Universal Imaging, Sunnyvale, Calif.]. Briefly, the entire retina was outlined to distinguish the total retinal area of each eye. Then, the images were thresholded to emphasize only the FITC-perfused vessels. This permitted the measurement of total BV area of each retina and the percentage of each retina that is engrossed with BVs. The entire mounted retinas were analyzed in a masked fashion [three observers] to minimize sampling bias. The total vascularized area was then normalized to the total retinal area and the percentage of the retina covered by vessels was calculated. The vascular area was quantified by setting a threshold level of fluorescence, above which only vessels were captured [density slicing]. The total surface area of the retina was outlined using the outermost vessel of the arcade near the ora serrata as the border. The central capillary dropout area was quantified from the digital images in masked fashion. […]

[2] = tested on: preretinal NV in OIR mouse model; test: Quantification of preretinal NV (H&E sections), OIR mouse model; type: in vivo, C57BL/6J mice; conditions: OIR mice, double intravitreal injection YC-1 100 μM, P17, n=8; DMSO 61
Method: as §1, with “Age-matched animals with the hyperoxia-exposed groups were maintained identically, except they were exposed to room air [2]% O2, 79% N2] for the entire duration of the experiment. All animals were examined and sacrificed on the same days.” left out
Quantification of preretinal NV on P17 mice was performed as previously described. Briefly, 6-μm-thick serial sections were stained with hematoxylin and Eosin (H&E), then examined and scored in masked fashion for the presence of all nuclei extending beyond the ILM into the vitreous from the retina, by using light microscopy (Zeiss Axiovert 135, Thornwood, N.Y.). Efficacy of treatment was calculated as the percentage of the average number of nuclei/section in the eyes of YC-1-treated mice vs. DMSO-treated retinas. A minimum of 10 sections at least 40 μm apart were evaluated and counted per eye and then averaged. […]

[3] = tested on: hRMVECs cocultured with rMC-1 cells; test: Cell migration in a co-culture system model (transwell); type: cell-based, human; conditions: rMC-1 cells treated with YC-1 100 μM, normoxic and hypoxic conditions
Method: Migration assay of hRMVECs was carried out using the transwell insert with […] pore size. The inserts were coated with Extracellular matrix [ECM] [Millipore, Billerica, Mass.] and airdry up. Chemotaxis was induced by the control r-MClcells or the r-MC1 cells that were treated with YC-1 [100 μM], which were situated in the lower compartment. hRMVECs suspension [final concentration, 5×10^4 cells/well] was added to the upper compartment [FIG. 7B]. After incubated for 24 hours, the filters were washed and then fixed and stained with crystal violet [0.5% crystal violet and 20% methanol] for 30 min at room temperature. The filters were washed with distilled water, and the cells on the upper surface of the inserts were wiped with a cotton swab. The number of cells per field that migrated to the lower surface of the filters was determined microscopically. Five randomly chosen fields were counted per filter. Data were presented as a number of migrated cells [**P<0.01].

Q: How did the “retinal vasodilation (vessel diameters)” value ([1]; OIR mice, dual injection P12 and P15, P17) turn out when `OCc1ccc(-c2nn(Cc3ccccc3)c3ccccc23)o1` [YC-1, 3-(5′-hydroxymethyl-2′-furyl)-1-benzylindazole] was run?
A: inhibited oxygen-injury-induced vasodilation

Q: What about the “area of pre-retinal neovascular tufts” value ([1]; OIR mice, dual injection, P17, vs DMSO-treated group) of the same compound?
A: significantly decreased

Q: And the “tortuosity index of retinal vessels” value ([1]; OIR mice, dual injection, P17, DMSO 1.059, normoxic 1.019)?
A: 1.026±0.001

Q: And the “number of BV tufts/flat mount” value ([1]; OIR mice, dual intravitreal injection P12 and P15, P17, n=15, DMSO 198)?
A: 3.0±1.1

Q: And the “vascularized regions, share of the total size of the retina” value ([1]; OIR mice, dual intravitreal injections, P17, DMSO 70%, normoxic ~99%)?
A: ~97%

Q: What about the “capillary-free (avascularized) regions, share of the size of the entire retina” value ([1]; OIR mice, intravitreal 3 μl YC-1 100 μM at P12 and P15, P17, DMSO-treated 30%) of the same compound?
A: 2.2%±0.1

Q: What about the retinal vaso-obliteration ([1]; OIR mice, vs obliterated areas of DMSO-treated retinas) of the same compound?
A: significantly inhibited the retinal vaso-obliteration

Q: And the “toxic effects on the retinal vasculature” value ([1]; mouse, in vivo)?
A: No obvious toxic effects

Q: And the “average number of neovascular nuclei (pre-retinal, anterior to ILM)” value [2]?
A: 11±1.8

Q: And the “rMC-1 cells-induced hRMVECs migration” value [3]?
A: significantly attenuated

Q: What about the “cell viability (DAPI exclusion)” value (R28 cells) of the same compound?
A: comprised the majority of cells
